Measurements: patent US20260102495A1, “METHOD FOR PRODUCING ONE OR SEVERAL SHARED CANCER EPITOPE(S) DERIVED FROM ALTERNATIVE TRANSLATIONAL CONTROL” (CENTRE LEON BERARD, priority 2022, published 2026)
No end group written: not given here.

Columns and labels:
[1] = test system: HLA-A2+ normal human primary cells
From the text: After elution, dissociation, filtration, and cleanup, peptides were lyophilized before further analysis. Transition parameters for each epitope peptide were examined and curated through Valid-NEO method builder bioinformatic pipeline to exclude ions with excessive noise due to coelution with impurities and to boost up the detectability through recursive optimizations of significant ions.

[2] = test system: CD8+ naive T cells; experiment: PBMCs priming assay on HLA-A*02:01 healthy donors with dextramer analysis; format: cell-based, human

| Sequence | presentation of epitope at the cell surface (MS transitions) [1] | donors in which priming of peptide specific CD8+ T cells was identified ([2]; 12 different donors, FIG. 2B) [donors] | dextramer positive CD8+ T cells ([2]; after 12 days priming with peptide pulsed MoDCs, FIG. 2A) [%] |
| --- | --- | --- | --- |
| LLLEATANL [PR3] | not presented by normal cells | – | – |
| SLTDLYLRI [PR5] | – | 2 | 0.068 |
